Source: PMC9935901, “B-lymphoid tyrosine kinase-mediated FAM83A phosphorylation elevates pancreatic tumorigenesis through interacting with β-catenin” (Signal Transduction and Targeted Therapy, 2023)

How the values were obtained:
[1] = system: BLK (FAM83A tyrosine phosphorylation); experiment: BLK-mediated FAM83A tyrosine phosphorylation in HEK293T cells; format: cell-based; conditions: 10 μM; HEK293T with or without BLK overexpression; n = 3
From the text: Cell lysates were used for IP and western blotting with the indicated antibodies (n = 3). f Level of total tyrosine phosphorylation of Flag-tagged FAM83A and its Y138A mutant in HEK293T cells after BLK kinase knockdown using two specific small interfering RNAs (siBLK#1 and siBLK#2). Cell lysates were used for IP and western blotting with the indicated antibodies (n = 3). g, h Level of total tyrosine phosphorylation of Flag-tagged FAM83A and its Y138A mutant in HEK293T cells with or without BLK kinase overexpression and saracatinib (BLK inhibitor, 10 μM)/PP2 (LCK or FYN inhibitor, 10 μM) treatment. Cell lysates were used for IP and western blotting with the indicated antibodies (n = 3). i The BLK kinases was obtained from the immunoprecipitate of HEK293T cell lysates that transfected with either HA-tagged BLK wild-type, BLK kinase-dead mutant (Y389A) or BLK constitutive activated mutant with the deletion of the C-terminal auto-inhibitory domain (BLK ΔC) using HA tag antibody. Then the BLK kinases were incubated with the in vitro purified GST-tagged FAM83A protein at 30 °C for 30 min with or without BLK inhibitor saracatinib, and then the reaction products were subjected to western blotting assay (n = 3)
Immunoprecipitation and Western blotting were performed as described previously.[35] GAPDH protein levels were used as loading controls. […]

[2] = system: pancreatic cancer stem cells (PaCSCs), primary PDAC cultures; conditions: primary PDAC cultures from patient-derived xenografts; ref not given; cited from earlier work
From the text: Intricate communication between pancreatic cancer cells and their surrounding environment is driven by a dynamic signaling network of cellular and matrix remodeling enzymes, cytokines, chemokines, and growth factors, which collectively promote tumor growth and treatment resistance. The non-receptor SRC kinase family signaling network is increasingly recognized as a key player in pancreatic tumorigenesis.[38],[39] Treatment of primary PDAC cultures established from patient-derived xenografts with dasatinib or PP2 reduced the clonogenic, self-renewal, and tumor-initiating capacity of pancreatic ...

[3] = system: PANC-1 xenograft tumor (FAM83A re-expression); experiment: Mouse xenograft of FAM83A re-expressing PANC-1 cells, Wnt inhibitor; format: in vivo, nude mice (human PANC-1 cells); conditions: 20 mg/kg intravenous (Fig. 6 legend) or 50 mg/kg intraperitoneal twice a week (methods); n = 6 or 5
Description: The Wnt inhibitor XAV939 (20 mg/kg) was intravenously injected into the caudal vein of the nude mice one week later after xenograft formation. c Growth curve showing the changes in the tumor volume in mice in different groups from the injection (n = 6 or 5). d Weight of the excised tumors in each group (n = 6 or 5). e, f Representative images of lung and colon metastasis of the nude mice model that tail intravenous injected with PANC-1 cells stably expressed Flag-tagged wild-type FA[MUT], [MUT], or [MUT] mutants were shown. g The number of lung or colon metastasis was quantified per field (n = 5). h, i Representative images and quantification of the soft agarose and plate colony formation assays of PANC-1 cells stably expressed Flag-tagged wild-type FA[MUT], [MUT], or [MUT] mutants (n = 3). j, k Representative images and quantification of the transwell assays without matrigel of PANC-1 cells stably expressed Flag-tagged wild-type FA[MUT], [MUT] or [MUT] mutants (n = 3). l Representative H&E staining images and immunohistochemical images of Ki67, C-myc, and AXIN2 expression in excised tumors tissues. *P < 0.05; **P < 0.01; ***P < 0.001. […] The length and width of the mouse xenograft tumors were measured every 5 days with calipers, and tumor volume (V) was calculated with the following formula: V = [(length × width × width)/2]. […]

Compound | FAM83A tyrosine phosphorylation [1] | clonogenic, self-renewal, and tumor-initiating capacity of PaCSCs [2] | xenograft tumor size [3]
CC(C)(C)n1nc(-c2ccc(Cl)cc2)c2c(N)ncnc21 [PP2] | not LYN kinase inhibitor PP2 | reduced the clonogenic, self-renewal, and tumor-initiating capacity of pancreatic cancer stem cells | –
Oc1nc(-c2ccc(C(F)(F)F)cc2)nc2c1CSCC2 [XAV939] | – | – | inhibits the xenograft tumor size mediated by FAM83A re-expression
Cc1nc(Nc2ncc(C(=O)Nc3c(C)cccc3Cl)s2)cc(N2CCN(CCO)CC2)n1 [dasatinib] | – | reduced the clonogenic, self-renewal, and tumor-initiating capacity of pancreatic cancer stem cells | –
CN1CCN(CCOc2cc(OC3CCOCC3)c3c(Nc4c(Cl)ccc5c4OCO5)ncnc3c2)CC1 [saracatinib] | could be reduced by the BLK kinase inhibitor saracatinib | – | –
